Results reported in patent US20240016784A1, “Y BOX BINDING PROTEIN 1 INHIBITORS” (Oregon Health & Science University, priority 2020, published 2024).

Tests used:
ovarian cancer cells = assay: Apoptotic cell death assay (Annexin-FITC); type: cell-based; settings: 24 h treatment; Annexin-FITC staining
Procedure: To determine whether proliferation inhibition was the dominant factor driving the reduction in OC viability seen with AzP treatment, we used propidium iodide and annexin-FITC stains with flow cytometry to measure the distribution of cell cycle phases after treatment. […] Furthermore, in the Boyden chamber assay for cell migration, SU093 inhibited cell migration by 40-46% (1 μM, P<0.05) in different OC cell lines.
Apoptotic cell death assay: Cells were plated and treated as described in cell cycle analysis assay above. Treated cells were incubated for 24 h and both live and dead cells were collected. Cells were stained with Annexin V and PI using FITC Annexin V apoptosis detection kit (BD Pharmingen, San Jose, CA) by following the manufacturer's protocol. Guava® easyCyte™ Flow Cytometer was used to analyze the stained cells.
FIG. 1A) Lead optimization of SU093 to obtain SU056. FIG. 1B) IC50 values of SU093 and SU056 on various ovarian cancer cells. Clonogenic survival of OC cells treated with SU093 or SU056. […] FIG. 1C) Representative colony formation from respective wells. FIG. 1D) Number of colonies formed after SU093 and SU056 treatment. […] FIG. 1F) Cell cycle distribution of propidium iodide (PI)-stained OVCAR8, SKOV3, and ID8 cells. […] FIG. 1G) Effects of SU093 and SU056 on apoptotic cell death analyzed by Annexin-FITC staining. […] FIG. 1H) Cell migration assay.

[1] = system: YB-1, TMSB10, SUMO2 and PMSB2 proteins; assay: Western blot of CETSA targets in OVCAR8 cells; type: cell-based, human; settings: 1, 2.5 and 5 μM for 12 h
Procedure: Out of six targets identified, we selected proteins whose thermal shift is above 5° in the presence of SU056 for further study of protein expression after treatment. […] To study the in vivo effects of SU056 treatment, we analyzed ID8 tumor xenograft samples via immunohistochemistry (IHC). […] To identify the broader effects of SU056 on YB-1 and its downstream protein/activity in different ovarian cancer cell lines, we selected six different cell lines and treated them with SU056 (2.5 μM) for 12 h. Cells were analyzed for YB-1 and CD44 expression and Multidrug resistance 1 (MDR1, ABC pump mediated efflux). […] OVCAR4, OVCAR8, and SKOV3 cells were treated with SU056 (1, 2.5, and 5 μM) for 3, 6, 12, and 24 h and YB-1 expression was measured using YB-1 ELISA. […]
Immunoblotting: Once 70% confluency of OC cells plated in 100 mm cell culture was obtained, dishes were treated with a respective concentration of SU056 for a respective time. […] Proteins were detected using Immobilon® Crescendo Western HRP Substrate (Millipore, Germany) and visualized on an IVIS Lumina Imaging System (Perkin Elmer, Waltham, MA).
FIGS. 4A-4E: SU056 inhibits YB-1. […] FIG. 4C) Respective OC cells were treated with 2.5 μM SU056 for 12 h and YB-1 & CD44 expression and multidrug resistance activity was measured as described in the ‘method’ section. […]

A549/ATCC = assay: NCI-60 cell line panel; type: cell-based; settings: Homo sapiens, 48 hours
Excerpt: (§1) FIG. 17: Assay of SU056 in NCI-60 cell line panel.

BT-549 = assay: NCI-60 cell line panel; type: cell-based; settings: Homo sapiens, 48 hours
Excerpt: as §1

CCRF-CEM = assay: NCI-60 cell line panel; type: cell-based; settings: Homo sapiens, 48 hours
Excerpt: as §1

HCT-116 = assay: NCI-60 cell line panel; type: cell-based; settings: Homo sapiens, 48 hours
Excerpt: as §1

HCT-15 = assay: NCI-60 cell line panel; type: cell-based; settings: Homo sapiens, 48 hours
Excerpt: as §1

HL-60(TB) = assay: NCI-60 cell line panel; type: cell-based; settings: Homo sapiens, 48 hours
Excerpt: as §1

HOP-62 = assay: NCI-60 cell line panel; type: cell-based; settings: Homo sapiens, 48 hours
Excerpt: as §1

HS 578T = assay: NCI-60 cell line panel; type: cell-based; settings: Homo sapiens, 48 hours
Excerpt: as §1

HT29 = assay: NCI-60 cell line panel; type: cell-based; settings: Homo sapiens, HT-29, 48 hours
Excerpt: as §1

MDA-MB-231/ATCC = assay: NCI-60 cell line panel; type: cell-based; settings: Homo sapiens, 48 hours
Excerpt: as §1

MDA-MB-468 = assay: NCI-60 cell line panel; type: cell-based; settings: Homo sapiens, 48 hours
Excerpt: as §1

NCI-H226 = assay: NCI-60 cell line panel; type: cell-based; settings: Homo sapiens, 48 hours
Excerpt: as §1

OVCAR-3 = assay: NCI-60 cell line panel; type: cell-based; settings: Homo sapiens, 48 hours
Excerpt: as §1

OVCAR-4 = assay: NCI-60 cell line panel; type: cell-based; settings: Homo sapiens, 48 hours
Excerpt: as §1

SK-MEL-28 = assay: NCI-60 cell line panel; type: cell-based; settings: Homo sapiens, 48 hours
Excerpt: as §1

SN12C = assay: NCI-60 cell line panel; type: cell-based; settings: Homo sapiens, 48 hours
Excerpt: as §1

OVCAR8 YBX1-shRNA1 cells = assay: Cell viability assay, transduced OVCAR8 cells; settings: Homo sapiens, OVCAR-8, read-out: IC50 (cell viability)
Excerpt: To check the dependency of SU056 activity on YB-1 expression, we also tested OVCAR8 cells transfected with YB-1 knockdown using transduction of lentiviral shRNA vectors. […] Furthermore, we also performed a cell viability assay using knockdown cells to calculate IC50 values.
Scrambled control (SC), YBX1 knockdown (1 & 2) and mCherry-YBX1 OVCAR8 cell lines were created using lentiviral based transduction and selected using puromycin resistance followed by cell shorting.
Cell viability assay: Cell viability was assessed using the standard MTT assay protocol. In brief, 5,000 cells were plated in each well of 96 well plates (Corning-Costar, #3598) and allowed to attach for 24 h. Cells were treated with a respective concentration of compounds for respective time points. A stock solution of each compound was prepared in DMSO. DMSO concentration was kept constant and maintained below 0.1%. After each incubation, 50 μL of 0.5 mg/ml MTT solution prepared in 1×PBS was added to each well followed by 1 h incubation at 37° C. and 5% CO2. MTT solution and media were then removed, and MTT formazan crystals were dissolved in 100 μL of DMSO per well. Absorbance at 570 nm for each well was recorded using a multimode plate reader to quantitate MTT crystallization. Each absorbance value was normalized to controls and converted into percent cell viability. […]

In the case of `O=C1OCC2=C1C(c1cccc(F)c1)c1cc3c(cc1N2CCO)OCO3` (stereo not shown) [SU056, 9-(3-fluorophenyl)-5-(2-hydroxyethyl)-6,9-dihydro-[1,3]dioxolo[4,5-g]furo[3,4-b]quinolin-8(5H)-one], the apoptotic cell death (ovarian cancer cells) is reported as “induce apoptotic cell death”, the “protein expression by Western blot” value [1] is reported as “inhibits the YB-1, TMSB10, SUMO2 and PMSB2 proteins in a dose-dependent manner” and the IC50 (A549/ATCC) is reported as 8.74 µM. The IC50 (BT-549) was 1.46 µM, the IC50 (CCRF-CEM) was 2.37 µM and the IC50 (HCT-116) was 1.53 µM. It also gave an IC50 (HCT-15) of 1.08 µM, an IC50 (HL-60(TB)) of 1.26 µM and an IC50 (HOP-62) of 2.19 µM. For the same molecule, the IC50 (HS 578T) was 1.42 µM, the IC50 (HT29) was 1.52 µM and the IC50 (MDA-MB-231/ATCC) was 3.09 µM. For the same molecule, the IC50 (MDA-MB-468) was 1.12 µM, the IC50 (NCI-H226) was 50 µM and the IC50 (OVCAR-3) was 1.27 µM. For the same molecule, the IC50 (OVCAR-4) was 46.8 µM, the IC50 (SK-MEL-28) was 20.3 µM and the IC50 (SN12C) was 3.05 µM. It also gave an IC50 (OVCAR8 YBX1-shRNA1 cells) of 15.8 µM.
